We go through three compounds from patent US9534010B2, “Stable indole-3-propionate salts of S-adenosyl-L-methionine” (HEBERT SAM-E LLC, priority 2013, dated 2017).

Data set [1] can be described thus: Storage stability at room temperature, checked by UV absorption spectra and HPLC. To be noted: for maximum absorption peak at 420 nm (toxic degradation products of incorporated IPA): UV absorption spectra, initial and after eight months at room temperature; for SAMe degradation products by HPLC or UV absorption spectra: stored for eight months at room temperature. It is filed as physicochemical. The text has this: Stability of the IPA salt can be assessed by the method disclosed in Bottiglieri, T. (1990), Biomed Chromatogr, 4(6):239-41.
Ultraviolet-visible light absorption spectra were obtained for the product of Synthetic Example 1 and the product of Synthetic Example 2 (see FIG. 1 and FIG. 2, respectively). An ultraviolet-visible light absorption spectrum was also obtained at the same time for a blank sample (see FIG. 5) for control purposes.
The product of Synthetic Example 1 and the product of Synthetic Example 2 were then stored for eight months at room temperature, after which ultraviolet-visible light absorption spectra were obtained for the stored products (see […] and FIG. 4). An ultraviolet-visible light absorption spectrum was also obtained at the same time for a blank sample (see FIG. 6) for control purposes.
This is in stark contrast to the unstable nature of, for example, previously known salts of SAMe, such as the tosylate or 1,4-butanedisulfonate salts, the stability of which can be determined in the same manner as described herein.

A further data set has as its system Caco-2 cells. In words: In vitro Caco-2 permeability assay (apical to basolateral). To be noted: for mean A->B Papp: analyte SAMe, test compound 2 mM, A side pH 6.5, B side pH 7.4, 2 hours. How it is done: The following in vitro permeability assay was conducted to determine the efficacy of certain absorption enhancers in increasing the permeability of a IPA salt of SAMe, or a pharmaceutically acceptable salt thereof, of the invention. See Stewart, B H, et al. (1995) “Comparison of intestinal permeabilities determined in multiple in vitro and in situ models: Relationship to absorption in humans,” Pharm. Res. 12:693.
The test compound was the IPA salt of SAMe 1,4-butanedisulfonate (the product of Synthetic Example 2) (SAMeIPA). The concentration of the test compound used in the assay was 2 mM.
The signal was optimized for each test formulation by ESI positive or negative ionization mode. An MS2 scan or a SIM scan was used to optimize the fragmenter voltage and a product ion analysis was used to identify the best fragment for analysis, and the collision energy was optimized using a product ion or MRM scan. An ionization ranking was assigned indicating the formulation's ease of ionization.
Samples were analyzed by LC/MS/MS using an Agilent 6410 mass spectrometer coupled with an Agilent 1200 HPLC and a CTC PAL chilled autosampler, all controlled by MassHunter software (Agilent). After separation on a C18 reverse phase HPLC column (Agilent, Waters, or equivalent) using an acetonitrile-water gradient system, peaks were analyzed by mass spectrometry (MS) using ESI ionization in MRM mode.
The permeability of SAMe and IPA were measured independently. […]
For Apical to Basolateral (A->B) permeability, the test formulation was added to the apical (A) side and amount of permeation is determined on the basolateral (B) side; for Basolateral to Apical (B>A) permeability, the test formulation was added to the B side and the amount of permeation was determined on the A side. […]
To verify the Caco-2 cell monolayers were properly formed, aliquots of the cell buffers were analyzed by fluorescence to determine the transport of the impermeable dye Lucifer Yellow.
Data was expressed as apparent permeability (Papp). […]
(Caco-2 monolayers are a common model of the intestinal barrier.)

The subject of data set [2] is alcoholic liver cirrhosis. The conditions noted are these: oral SAMe, compared with a placebo treated group; cited from earlier work.

Take “S-Adenosyl-L-methionine p-toluenesulfonate indole-3-propionate [Synthetic Example 1]”: in data set [1], the “maximum absorption peak at 420 nm (toxic degradation products of incorporated IPA)” value is “no maximum absorption peaks at 420 nm were noted” and the “SAMe degradation products by HPLC or UV absorption spectra” value is given as “No SAMe degradation products were detected”.
On to “S-Adenosyl-L-methionine 1,4-butanedisulfonate indole-3-propionate [SAMeIPA]”, for which the “mean A->B Papp” value in the data set on Caco-2 cells is given as 0.20. Besides, the “mean A->B Papp” value with Caco-2 cells (listed as S-adenosyl-L-methionine 1,4-butanedisulfonate indole-3-propionate salt) is recorded as “low”. Besides, in the data set with Caco-2 cells (using trimethyl chitosan homopolymer as the absorption enhancer), the “fold increase in S-adenosyl-L-methionine permeability” value was determined as 37.5 fold. In data set [1], the “maximum absorption peak at 420 nm (toxic degradation products of incorporated IPA)” value is on record as “no maximum absorption peaks at 420 nm were noted” and the “SAMe degradation products by HPLC or UV absorption spectra” value is on record as “No SAMe degradation products were detected”.
`C[S+](CC[C@H](N)C(=O)O)C[C@H]1O[C@@H](n2cnc3c(N)ncnc32)[C@H](O)[C@@H]1O` (stereo partly drawn) [SAMe, S-adenosyl-L-methionine]: in data set [2], the “overall mortality and/or progression to liver transplant” value was 12%.
